Inhibition data for one compound are collected here from publication PMC6934184, “Selective DNA-PKcs inhibition extends the therapeutic index of localized radiotherapy and chemotherapy” (The Journal of Clinical Investigation, 2019).

This assay addresses T1, LYN B (Homo sapiens, UniProt P07948).
T1 construct: purchased Thermo Fisher Scientific (Life Technologies) SelectScreen
The experiment in a line: SelectScreen Z'LYTE. The class given is biochemical. As for the experimental part: The in vitro kinase selectivity of NU5455 was determined using the SelectScreen Broad Assay Panel (Thermo Fisher Scientific) involving activity and binding assays (Supplemental Table 1). […] Class IA PI3Ks were measured using the p85α subunit.
Kinase [ATP] % Assay Kinase [ATP] % Assay Kinase [ATP] % Assay Kinase [ATP] % Assay […]
CHEK1 (CHK1) Km app 9.3 Z LYN B Km app 3.0 Z TGFBR2 n/a -0.1 L PDGFRA D842V Km app -5.0 Z […]
SGK (SGK1) Km app 8.5 Z MAP4K2 (GCK) Km app 2.7 Z TLK2 n/a -0.3 L STK38 (NDR) n/a -5.9 L
MERTK (cMER) Km app 8.3 Z CDK2/cyclin A Km app 2.7 Z TGFBR1 (ALK5) n/a -0.4 L MATK (HYL) Km app -6.3 Z
FYN Km app 8.3 Z EPHA1 Km app 2.7 Z CLK3 Km app -0.5 Z ABL1 E255K Km app -6.6 Z
TEC n/a 8.1 L CDK2/cyclin E1 n/a 2.7 L MAP3K14 (NIK) n/a -0.5 L STK17A (DRAK1) n/a -6.6 L
KIT V654A n/a 8.1 L TESK2 n/a 2.7 L AKT3 (PKB gamma) Km app -0.5 Z JAK2 JH1 JH2 Km app -6.7 Z
ROS1 Km app 8.0 Z SPHK1 Km app 2.7 A MAP3K9 (MLK1) Km app -0.5 Z PRKACB (PRKAC beta) n/a -6.8 L
FGFR3 K650E Km app 7.9 Z AMPK A2/B1/G1 Km app 2.6 Z IKBKB (IKK beta) Km app -0.6 Z PDGFRA (PDGFR alpha) Km app -6.8 Z
RAF1 (cRAF) Y340D Y341D 100 7.9 Z DYRK3 Km app 2.6 Z CAMK2A (CaMKII alpha) Km app -0.6 Z NEK9 Km app -7.2 Z
PI4KA (PI4K alpha) 10 7.8 A CSNK1D (CK1 delta) Km app 2.6 Z PRKCB1 (PKC beta I) Km app -0.7 Z PDK1 Km app -7.3 Z
HIPK2 Km app 7.8 Z ACVR2A n/a 2.5 L TTK n/a -0.7 L RPS6KB1 (p70S6K) Km app -7.8 Z […]

T1 sequence (P07948 1-491 isoform P07948-2): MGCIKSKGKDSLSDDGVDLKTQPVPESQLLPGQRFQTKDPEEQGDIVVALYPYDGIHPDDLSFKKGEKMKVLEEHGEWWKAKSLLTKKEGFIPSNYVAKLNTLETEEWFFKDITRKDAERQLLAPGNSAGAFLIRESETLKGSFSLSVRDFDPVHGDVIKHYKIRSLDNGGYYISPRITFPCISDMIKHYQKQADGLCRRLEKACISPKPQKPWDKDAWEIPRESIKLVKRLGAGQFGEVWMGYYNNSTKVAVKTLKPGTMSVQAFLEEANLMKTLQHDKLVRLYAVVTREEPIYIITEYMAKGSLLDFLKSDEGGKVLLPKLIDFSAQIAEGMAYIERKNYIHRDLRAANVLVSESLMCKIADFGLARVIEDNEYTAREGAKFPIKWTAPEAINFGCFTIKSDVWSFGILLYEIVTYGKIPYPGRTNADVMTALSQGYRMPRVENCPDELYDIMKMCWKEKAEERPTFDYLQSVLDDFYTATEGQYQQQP

For `CN(C(=O)CN1CCOCC1)c1ccc2sc3c(-c4cccc5c(=O)cc(N6CC7CCC(C6)O7)oc45)cccc3c2c1` [NU5455], the inhibition – broadly, the relative decrease from the control value, in per cent – at 1 µM worked out at 3%.
